# Tested on: Jurkat cells
# Experiment: (r) Cell cytotoxicity assay
# Assay type: cell-based, human
# Conditions: 24 hours
# Experimental: 1×10^5 Jurkat cells (immortalised human T lymphocytes) are added to the appropriate number of wells of a 96 well plate in 100 μL of media (RPMI supplemented with 10% foetal bovine serum). 1 μL of DMSO control (final concentration 1.0% v/v) or test compound (final concentration 20, 5 or 1 μg/mL) is added to the wells and incubated at 37° C., 5% CO2. After 24 hours, the plate is centrifuged at 1200 rpm for 3 minutes and the supernatant discarded. Cells are then resuspended in 150 μL (final concentration 7.5 μg/mL) of propidium iodide (PI) in PBS and incubated at 37° C., 5% CO2 for 15 minutes. After 15 minutes, cells are analysed by flow cytometry (BD accuri) using the FL3 window. The % viability is calculated as the % of cells that are PI negative in the test wells normalised to the DMSO control.
Compound,% Viability at 1 μg/mL,% Viability at 5 μg/mL,% Viability at 20 μg/mL
"COc1cc(Nc2cc(Oc3ccc(NC(=O)Nc4cc(C(C)(C)C)cc(NS(C)(=O)=O)c4OC)c4ccccc34)ccn2)ccc1C(=O)NCCCCCN(C)C [17(bd), 4-((4-((4-(3-(5-(tert-Butyl)-2-methoxy-3-(methylsulfonamido)phenyl)ureido)naphthalen-1-yl)oxy)pyridin-2-yl)amino)-N-(5-(dimethylamino)pentyl)-2-methoxybenzamide]",85.8%,28.7%,0.1%
"COc1cc(Nc2cc(Oc3ccc(NC(=O)Nc4cc(C(C)(C)C)cc(NS(C)(=O)=O)c4OC)c4ccccc34)ccn2)ccc1C(=O)NCCOCCO [17(bm), 4-((4-((4-(3-(5-(tert-Butyl)-2-methoxy-3-(methylsulfonamido)phenyl)ureido)naphthalen-1-yl)oxy)pyridin-2-yl)amino)-N-(2-(2-hydroxyethoxy)ethyl)-2-methoxybenzamide]",103.6%,0.2%,0.5%
"COc1cc(Nc2cc(Oc3ccc(NC(=O)Nc4cc(C(C)(C)C)cc(NS(C)(=O)=O)c4OC)c4ccccc34)ccn2)ccc1C(=O)N[C@@H](CO)C(=O)O [17(bj), (S)-2-(4-((4-((4-(3-(5-(tert-Butyl)-2-methoxy-3-(methylsulfonamido)phenyl)ureido)-naphthalen-1-yl)oxy)pyridin-2-yl)amino)-2-methoxybenzamido)-3-hydroxypropanoic acid]",96.2%,96.6%,94.8%
"COc1cc(Nc2cc(Oc3ccc(NC(=O)Nc4cc(C(C)(C)C)cc(NS(C)(=O)=O)c4OC)c4ccccc34)ccn2)ccc1C(=O)NC[C@H](O)[C@@H](O)[C@H](O)[C@H](O)CO [17(bw), 4-((4-((4-(3-(5-(tert-Butyl)-2-methoxy-3-(methylsulfonamido)phenyl)ureido)naphthalen-1-yl)oxy)pyridin-2-yl)amino)-2-methoxy-N-((2S,3R,4R,5R)-2,3,4,5,6-pentahydroxyhexyl) benzamide]",94.5%,96.2%,92.4%
"COc1cc(Nc2cc(Oc3ccc(NC(=O)Nc4cc(C(C)(C)C)cc(NS(C)(=O)=O)c4OC)c4ccccc34)ccn2)ccc1C(=O)NCCN1CC[C@@H](O)C1 [17(cr), (R)-4-((4-((4-(3-(5-(tert-Butyl)-2-methoxy-3-(methylsulfonamido)phenyl)ureido)-naphthalen-1-yl)oxy)pyridin-2-yl)amino)-N-(2-(3-hydroxypyrrolidin-1-yl)ethyl)-2-methoxybenzamide]",81.1%,18.0%,0.9%
"COc1c(NC(=O)Nc2ccc(Oc3ccnc(Nc4ccc(C(=O)NCCOCCOCCO)c(N(C)C)c4)c3)c3ccccc23)cc(C(C)(C)C)cc1NS(C)(=O)=O [17(bt), 4-((4-((4-(3-(5-(tert-Butyl)-2-methoxy-3-(methylsulfonamido)phenyl)ureido)naphthalen-1-yl)oxy)pyridin-2-yl)amino)-2-(dimethylamino)-N-(2-(2-(2-hydroxyethoxy)ethoxy)ethyl) benzamide]",89.8%,39.9%,22.5%
"COc1cc(Nc2cc(Oc3ccc(NC(=O)Nc4cc(C(C)(C)C)cc(NS(C)(=O)=O)c4OC)c4ccccc34)ccn2)cc(OC)c1C(=O)NCCCN1CCN(C)CC1 [17(au), 4-((4-((4-(3-(5-(tert-Butyl)-2-methoxy-3-(methylsulfonamido)phenyl)ureido)naphthalen-1-yl)oxy)pyridin-2-yl)amino)-2,6-dimethoxy-N-(3-(4-methylpiperazin-1-yl)propyl)benzamide]",94.0%,91.8%,80.6%
"COc1cc(Nc2cc(Oc3ccc(NC(=O)Nc4cc(C(C)(C)C)cc(NS(C)(=O)=O)c4OC)c4ccccc34)ccn2)ccc1C(=O)NCCNC(=O)CCC(=O)O [17(cd), 4-((2-(4-((4-((4-(3-(5-(tert-Butyl)-2-methoxy-3-(methylsulfonamido)phenyl)ureido)-naphthalen-1-yl)oxy)pyridin-2-yl)amino)-2-methoxybenzamido)ethyl)amino)-4-oxobutanoic acid]",96.4%,96.5%,91.4%
"COc1cc(Nc2cc(Oc3ccc(NC(=O)Nc4cc(C(C)(C)C)cc(NS(C)(=O)=O)c4OC)c4ccccc34)ccn2)ccc1C(=O)NCCC(=O)O [17(ay), 3-(4-((4-((4-(3-(5-(tert-Butyl)-2-methoxy-3-(methylsulfonamido)phenyl)ureido)-naphthalen-1-yl)oxy)pyridin-2-yl)amino)-2-methoxybenzamido)propanoic acid]",95.3%,94.6%,90.1%
"COc1cc(Nc2cc(Oc3ccc(NC(=O)Nc4cc(C(C)(C)C)cc(NS(C)(=O)=O)c4OC)c4ccccc34)ccn2)ccc1C(=O)NCCN1CCN(C(=O)CCC(=O)O)CC1 [17(ck), 4-(4-(2-(4-((4-((4-(3-(5-(tert-Butyl)-2-methoxy-3-(methylsulfonamido)phenyl)ureido)-naphthalen-1-yl)oxy)pyridin-2-yl)amino)-2-methoxybenzamido)ethyl)piperazin-1-yl)-4-oxobutanoic acid]",96.1%,96.1%,95.5%
"COc1cc(Nc2cc(Oc3ccc(NC(=O)Nc4cc(C(C)(C)C)cc(NS(C)(=O)=O)c4OC)c4ccccc34)ccn2)ccc1-c1nn[nH]n1 [Example 24, N-(5-(tert-Butyl)-2-methoxy-3-(3-(4-((2-((3-methoxy-4-(2H-tetrazol-5-yl)phenyl)amino)pyridin-4-yl)oxy)naphthalen-1-yl)ureido)phenyl)methanesulfonamide]",104.3%,92.4%,9.7%
"COc1cc(Nc2cc(Oc3ccc(NC(=O)Nc4cc(C(C)(C)C)cc(NS(C)(=O)=O)c4OC)c4ccccc34)ccn2)ccc1C(=O)NCCO [17(bn), 4-((4-((4-(3-(5-(tert-Butyl)-2-methoxy-3-(methylsulfonamido)phenyl)ureido)naphthalen-1-yl)oxy)pyridin-2-yl)amino)-N-(2-hydroxyethyl)-2-methoxybenzamide]",102.8%,65.6%,19.5%
"COc1cc(Nc2cc(Oc3ccc(NC(=O)Nc4cc(C(C)(C)C)cc(NS(C)(=O)=O)c4OC)c4ccccc34)ccn2)ccc1C(=O)NCCN1CCN(C(C)C)CC1 [17(bf), 4-((4-((4-(3-(5-(tert-Butyl)-2-methoxy-3-(methylsulfonamido)phenyl)ureido)naphthalen-1-yl)oxy)pyridin-2-yl)amino)-N-(2-(4-isopropylpiperazin-1-yl)ethyl)-2-methoxybenzamide]",90.7%,1.5%,0.6%
"COc1cc(Nc2cc(Oc3ccc(NC(=O)Nc4cc(NS(C)(=O)=O)cc(C(C)(C)C)c4)c4ccccc34)ccn2)ccc1C(=O)NCCC1CCN(C)CC1 [17(bs), 4-((4-((4-(3-(3-(tert-Butyl)-5-(methylsulfonamido)phenyl)ureido)naphthalen-1-yl)oxy)pyridin-2-yl)amino)-2-methoxy-N-(2-(1-methylpiperidin-4-yl)ethyl)benzamide]",90.9%,48.7%,0.3%
"COc1cc(Nc2cc(Oc3ccc(NC(=O)Nc4cc(C(C)(C)C)cc(NS(C)(=O)=O)c4OC)c4ccccc34)ccn2)ccc1C(=O)NCCC1CCNCC1 [Example 27, 4-((4-((4-(3-(5-(tert-Butyl)-2-methoxy-3-(methylsulfonamido)phenyl)ureido)naphthalen-1-yl)oxy)pyridin-2-yl)amino)-2-methoxy-N-(2-(piperidin-4-yl)ethyl)benzamide]",101.2%,94.9%,1.7%
"COc1cc(Nc2nccc(Oc3ccc(NC(=O)Nc4cc(C(C)(C)C)cc(NS(C)(=O)=O)c4OC)c4ccccc34)n2)ccc1C(=O)NCCCN1CCN(C)CC1 [17(ap), 4-((4-((4-(3-(5-(tert-Butyl)-2-methoxy-3-(methylsulfonamido)phenyl)ureido)naphthalen-1-yl)oxy)pyrimidin-2-yl)amino)-2-methoxy-N-(3-(4-methylpiperazin-1-yl)propyl)benzamide]",97.8%,40.1%,0.6%
"COc1cc(Nc2nccc(Oc3ccc(NC(=O)Nc4cc(C(C)(C)C)cc(NS(C)(=O)=O)c4OC)c4ccccc34)n2)ccc1S(N)(=O)=O [Example 28, 4-((4-((4-(3-(5-(tert-Butyl)-2-methoxy-3-(methylsulfonamido)phenyl)ureido)naphthalen-1-yl)oxy)pyrimidin-2-yl)amino)-2-methoxybenzenesulfonamide]",100.0%,41.1%,18.9%

# From patent US10125100B2, “Kinase inhibitors” (Respivert Limited, priority 2014, dated 2018)
